How the values were obtained:
[1] = test system: mechanical allodynia after chronic constriction injury (CCI) to the sciatic nerve; assay: Repeated administration, mechanical allodynia (Dynamic Plantar Aesthesiometer) in CCI rats; format: in vivo, rat; conditions: for difference between the pain relieving values before and after treatment, Mechanical Allodynia: day 14 minus day 7
Method: (§1) Painful neuropathy was induced in male Wistar rats weighing 200-220 g (Harlan, Italy). Animals were anaesthetized with sodium pentobarbital (60 mg kg^−1 i.p.) and submitted to a surgical procedure to induce neuropathic pain according to Bennet & Xie (1988).
(§2) This procedure was a chronic constriction injury (CCI) to the sciatic nerve, this was achieved by exposing the common sciatic nerve at the level of the mid thigh and, proximal to the sciatic nerves trifurcation, four ligatures were loosely tied around it with about 1 mm spacing so that the epineural circulation was preserved.
(§3) Sham animals (sciatic exposure without ligation) were used as controls.
(§4) The compounds tested were a cannabinoid-containing plant extract which contained a ratio of CBD:THC of approximately 24:1. From Table 1 this could also be described as a “CBD-containing plant extract”. The extract comprised CBD at a concentration of 10 mg/kg and THC at a concentration of 0.42 mg/kg. Pure cannabinoids CBD (at a concentration of 10 mg/kg) and THC (at a concentration of 0.42 mg/kg) were also used as test articles for comparison to the cannabinoid-containing plant extract.
(§5) The test compounds were dissolved in a 1:1:18 mixture of ethanol, cremophor and saline.
(§6) In the repeated administration study the rats received the test compounds or the vehicle orally once a day for seven days, starting from the seventh day after the surgical procedure.
(§7) The animals pain response was monitored (i) before surgery, (ii) on day 7 (before starting the treatment) and (iii) on day 14 (24 hours after the last administration of the test article).
(§8) Mechanical allodynia was assessed using the Dynamic Plantar Aesthesiometer (Ugo Basile, Varese, Italy). Particularly, animals were placed in a test cage with a wire mesh floor, and the tip of von Frey-type filament was applied to the middle of the plantar surface of the hind paw. The filament exerted an increasing force starting below the threshold of detection and increasing until the animal removed its paw. Withdrawal threshold was expressed as tolerance level in g.
(§9) Table 5 below details the data produced by the repeated administration of the vehicle to the sham animals or administration of vehicle or test article to animals with CCI. Test article or vehicle was administered 7 days after the chronic constriction injury was applied and was administered once a day for a further seven days.

[2] = test system: thermal hyperalgesia after chronic constriction injury (CCI) to the sciatic nerve; assay: Repeated administration, thermal hyperalgesia (Hargreaves plantar test) in CCI rats; format: in vivo, rat; conditions: for difference between the pain relieving values before and after treatment, Thermal Hyperalgesia: day 14 minus day 7
Method: as §1, §2, §3, §4, §5, §6, §7
(§10) Thermal hyperalgesia was tested according to the Hargreaves procedure (Hargreaves et al., 1988) using the plantar test (Ugo Basile, Varese, Italy).
(§11) Briefly, animals were placed in a clear plexiglass box and allowed to acclimatise. A constant intensity radiant heat source was aimed at the midplantar area of the hind paw. The time, in seconds, from initial heat source activation until paw withdrawal was recorded.
as §9, with “4” for “5”

[3] = test system: mechanical allodynia after chronic constriction injury (CCI) to the sciatic nerve; assay: Acute administration, mechanical allodynia (Dynamic Plantar Aesthesiometer) in CCI rats; format: in vivo, rat; conditions: for Withdrawal threshold: CCI rats 14 days after injury, THC 0.42 mg/kg, CBD 10 mg/kg; for mean pain relieving effect of the test article when compared to the vehicle as a percentage, Mechanical Allodynia: mean over the test period
Method: as §1, §2, §3, §4, §5
(§12) The acute administration of compounds was evaluated in rats treated with vehicle for one week and subsequently provided with the test article prior to the behavioural evaluations. The behavioural evaluations were performed at different times (between 30 min to 24 hours).
as §8
Table 3 below details the data produced by the acute administration of the vehicle to the sham animals or administration of vehicle or test article to animals with CCI, 14 days after the injury occurred.

[4] = test system: neuropathic pain model of chronic constriction injury of the rat sciatic nerve; conditions: purified compound; thermal and mechanical hyperalgesia and mechanical allodynia; cited from earlier work
[5] = test system: thermal hyperalgesia after chronic constriction injury (CCI) to the sciatic nerve; assay: Acute administration, thermal hyperalgesia (Hargreaves plantar test) in CCI rats; format: in vivo, rat; conditions: for Withdrawal latency: CCI rats 14 days after injury, THC 0.42 mg/kg, CBD 10 mg/kg; for mean pain relieving effect of the test article when compared to the vehicle as a percentage, Thermal Hyperalgesia: mean over the test period
Method: as §1, §2, §3, §4, §5, §12, §10, §11
Table 2 below details the data produced by the acute administration of the vehicle to the sham animals or administration of vehicle or test article to animals with CCI, 14 days after the injury occurred.

[6] = test system: patients taking carbamezepine; conditions: cited from earlier work
[7] = day 0 (prior to CCI), baseline of the treatment group
[8] = day 7 after CCI (before drug treatment), baseline of the treatment group
[9] = day 14 after CCI (after 7 days of drug treatment, orally once a day; THC 0.42 mg/kg, CBD 10 mg/kg)
[10] = repeated administration, 7 days

Row | Structure (SMILES) | Withdrawal threshold [1, 7] | Withdrawal threshold [1, 8] | Withdrawal threshold [1, 9] | difference between the pain relieving values before and after treatment, Mechanical Allodynia ([1]; repeated administration) | Withdrawal latency [2, 7] | Withdrawal latency [2, 8] | Withdrawal latency [2, 9] | difference between the pain relieving values before and after treatment, Thermal Hyperalgesia ([2]; repeated administration) | Withdrawal threshold ([3]; 30 min after administration) | Withdrawal threshold ([3]; 60 min after administration) | Withdrawal threshold ([3]; 90 min after administration) | Withdrawal threshold ([3]; 120 min after administration) | Withdrawal threshold ([3]; 150 min after administration) | Withdrawal threshold ([3]; 180 min after administration) | mean pain relieving effect of the test article when compared to the vehicle as a percentage, Mechanical Allodynia [3] | pain relieving effect (in words), thermal hyperalgesia [5] | Withdrawal latency ([5]; 30 min after administration) | Withdrawal latency ([5]; 60 min after administration) | Withdrawal latency ([5]; 90 min after administration) | Withdrawal latency ([5]; 120 min after administration) | other results
1 | C=C(C)[C@@H]1CCC(C)=C[C@H]1c1c(O)cc(CCCCC)cc1O [CBD, cannabidiol] | 34 g | 15 g | 19 g | 4 g | 10.4 s | 5.5 s | 8.7 s | 3.2 s | 10 g | 10 g | 11 g | 10 g | 10 g | 10 g | −13% | did not produce any pain relieving effects | 5.4 s | 5.4 s | 5.4 s | 5.3 s | pain relieving effect (in words), mechanical allodynia [3]: did not produce any pain relieving effects; relief of neuropathic pain (in words) [4]: can partially relieve neuropathic pain; Withdrawal latency ([5]; 150 min after administration): 5.4 s; Withdrawal latency ([5]; 180 min after administration): 5.3 s; mean pain relieving effect of the test article when compared to the vehicle as a percentage, Thermal Hyperalgesia [5]: −4%
2 | CCCCCc1cc(O)c2c(c1)OC(C)(C)[C@@H]1CCC(C)=C[C@@H]21 [THC, delta-9-tetrahydrocannabinol] | 31 g | 12 g | 10 g | -2 g | 9.8 s | 5.8 s | 4.8 s | -1.0 s | 12 g | 9 g | 15 g | 21 g | 13 g | 10 g | 14% | increased the withdrawal latency over that of the vehicle treated animals | 11.0 s | 10.2 s | 9.8 s | 6.0 s | pain relieving effect (in words), mechanical allodynia [1, 10]: did not result in any pain relieving effect; pain relieving effect (in words), thermal hyperalgesia [2, 10]: did not result in any pain relieving effect; peak withdrawal threshold ([3]; peak after 120 minutes): 20 g; Withdrawal latency ([5]; 150 min after administration): 5.0 s; Withdrawal latency ([5]; 180 min after administration): 5.3 s; mean pain relieving effect of the test article when compared to the vehicle as a percentage, Thermal Hyperalgesia [5]: 47%
3 | NC(=O)N1c2ccccc2C=Cc2ccccc21 [carbamezepine] |  |  |  |  |  |  |  |  |  |  |  |  |  |  |  |  |  |  |  |  | increase in the risk of blood dyscrasias ([6]; post-marketing studies, patients taking carbamezepine): five- to eight-fold increase; patients with a 25% decrease in their white blood cell count ([6]; usually reverses within the first 4 months of therapy): 7%
